Test results: patent US7799831B2, “Lipophilic diesters of chelating agent for inhibition of enzyme activity” (D-Pharm Ltd., priority 2002, dated 2010)

Key:
[1] = molecular target: T1, MMP-9 (Rattus norvegicus, UniProt P50282); experiment: MMP-9 gelatinase activity by gelatin zymogram of conditioned media from C6 glioma cells (basal, TNFα- or PMA-induced); assay type: cell-based; conditions: for Effect on MMP-9 activity: C6 glioma cells stimulated with TNFα
Procedure: C6 rat glioma cells (ATCC; CRL-2199) grown on 100 mm petri dishes were detached by trypsinization and cultured to a density of 10^5 cells/well on 24-well plates in DMEM+10% FCS. The TNFα-treated cells which were stimulated to induce gelatinases were incubated, on the next day after plating, for 18 hours in DMEM without serum in the presence of either 20 ng/ml or 40 ng/ml
TNFα (R&D, cat. #410-TRNC). Different concentrations of the tested compound, as indicated, in 0.48% fatty acid free BSA, 0.4% ethanol were added to the cells that were then incubated for a total of 18-24 hours at 37° C. Cells treated with vehicle only served as control group.
Conditioned media (CM) were then collected, centrifuged at 2000 rpm for 5 min., and supernatants were transferred to new tubes. MMP gelatinase activity was determined by using zymogram gels (Invitrogen, cat. #EC6175) which include gelatin as a substrate. Samples were loaded on gels in 62.5 mM Tris-HCl pH 6.8, 10% glycerol, 2% SDS and traces of bromophenol-blue. Gels were run in Tris/glycine-SDS running buffer, washed for 30 min. with renaturing buffer (Invitrogen) and for further 30 min. with developing buffer (Invitrogen). MMP activity was developed overnight at 37° C. with fresh developing buffer. The gels were then stained for one hour with Coomasie Blue (Brilliant Blue R, Sigma, cat. #B-8647) in 40% methanol and 7% acetic acid, and destained with 30% methanol/10% acetic acid. […] Band analysis was determined using the Kodak digital Science™ 1D Image Analysis Software. Treatments were performed in triplicates and were subjected to three separate zymogram gels.
C6 glioma cells were grown and treated as described above in Example 3, except that cells were stimulated with either 20 ng/ml TNFα (R&D, cat. #410-TRNC) or 0.1 μM Phorbol 12-myristate 13-acetate (PMA, Sigma, cat. #P-8139). […]
Assays were performed in triplicates and zymogram analysis was carried out as described above in Example 3. IC50 values for each of the tested DP-BAPTA compounds were calculated.
Target sequence in this assay (P50282 108-708): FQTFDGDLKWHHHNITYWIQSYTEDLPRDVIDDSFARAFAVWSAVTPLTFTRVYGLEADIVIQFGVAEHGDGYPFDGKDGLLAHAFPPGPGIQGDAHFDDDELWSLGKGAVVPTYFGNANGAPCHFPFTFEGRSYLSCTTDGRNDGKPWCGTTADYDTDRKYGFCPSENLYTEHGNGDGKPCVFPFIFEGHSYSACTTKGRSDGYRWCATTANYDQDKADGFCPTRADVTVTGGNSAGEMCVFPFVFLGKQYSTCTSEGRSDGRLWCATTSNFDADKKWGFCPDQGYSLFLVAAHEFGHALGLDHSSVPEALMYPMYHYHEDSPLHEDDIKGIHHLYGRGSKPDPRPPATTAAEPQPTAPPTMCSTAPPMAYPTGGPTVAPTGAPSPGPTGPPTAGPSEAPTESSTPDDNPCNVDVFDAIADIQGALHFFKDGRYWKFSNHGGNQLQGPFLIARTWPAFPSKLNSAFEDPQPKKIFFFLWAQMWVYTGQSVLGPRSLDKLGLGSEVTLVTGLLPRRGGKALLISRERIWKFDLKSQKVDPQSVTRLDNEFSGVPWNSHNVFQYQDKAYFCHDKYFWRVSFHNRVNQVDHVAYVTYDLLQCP

[2] = molecular target: T1, MMP-9; experiment: MMP-9 activity in brain hemisphere lysates after unilateral MCAO (zymogram); assay type: in vivo; set-up: each hemisphere of their brains was subjected separately to lysis and extracted for enzymatic activity; from tissue; host or cells: rat brain hemispheres (Sprague-Dawley, MCAO); conditions: SD rats, 2 h MCAO, 5 μg/kg i.p. single dose, sacrificed after 24 hrs
Procedure: Six Sprague-Dawley (SD) rats were subjected to unilateral (right hemisphere) Middle Cerebral Artery Occlusion (MCAO) for 2 hours. 5 μg/kg DP-b99 in 0.02% sodium citrate in saline was i.p. administered to three animals in a single dose, followed by 2 hrs. reperfusion. The other three animals were treated with vehicle instead of DP-b99. A rat that was only operated with no further treatment was used as a sham control.
The seven rats were sacrificed after 24 hrs. and each hemisphere of their brains was subjected separately to lysis and extracted for enzymatic activity. Brains were minced and solubilized in lysis buffer (25 mM Tris-HCl pH 7.5, 1% IGEPAL CA-630—a non-ionic detergent from Sigma, 100 mM NaCl, 0.5 U/ml aprotinin, 0.01% sodium azide) at a final concentration of 400 mg/ml. The preparations were incubated for 24 hrs. at 4° C. before lysates were centrifuged at 14,000 rpm for 15 min. and supernatants were collected.
Protein concentration was determined by the Bradford assay and 40 μg protein from each lysate were loaded on gelatin zymogram gels for determination of MMP-9 levels. Gels were developed for 48 hrs. Quantitative analysis of the gels was performed using the Kodak Digital System and Kodak 1D software as described in Example 3.
Target sequence in this assay (P50282 108-708): as above

[3] = molecular target: T1, MMP-9; experiment: MMP-9 zymogram of conditioned media from primary cortical glial cells (basal and TNFα-induced); assay type: cell-based; set-up: endogenous in cells; host or cells: primary cortical glial cells from rat embryos; conditions: 25 μM compound
Procedure: Cortical glial cells from rat embryos (day 18 of pregnancy) were seeded on poly-D-lysine coated 24-well plates with MEM medium containing 5% FCS, 5% HS, 2 mM 1-glutamine and 0.6% glucose, at a density of 5×10^4 cells/well. After 4 days in culture, the medium was changed to MEM+10% FCS. When glial cells reached confluence (around 17 days after plating), they were exposed for 24 hours to 10 ng/ml or 20 ng/ml human TNFα in order to induce MMP-9. The induction was performed either in the absence or presence of 25 μM DP-b99 (dilution 1:200 with medium from a stock of 5 mM in sodium citrate buffer) in a serum-free medium containing 5 mg/ml BSA (essentially fatty acid free). Conditioned media (CM) were collected and 12 μl of each of the triplicates was subjected to separate zymogram gels, as described above in Example 3.
A quantitative analysis of the MMP-9 bands, representing the pro- and active forms of the enzyme, was performed on the triplicate zymograms. The results were normalized to percentage of control values (=100%) and are depicted in FIGS. 3B and 3C that represent, respectively, the biologically active- and pro-MMP-9 forms of the enzyme.

[4] = tested on: calpain; experiment: Calpain-cleaved spectrin in brain hemispheres after transient MCA occlusion; assay type: in vivo, rat; conditions: SD rats, 2 h MCAO, 5 μg/kg i.p. at start of reperfusion
Procedure: Transient middle cerebral artery (MCA) occlusion was performed in male Sprague Dawley (SD) rats by applying 4-0 silicone-coated nylon monofilament through external carotid artery. The animals were anesthetized with 4% halothane and maintained at 1.5% halothane in a 1:2 mixture of nitrous oxide and oxygen without tracheotomy and allowed to breathe spontaneously. Via a ventral cutaneous the common, right external and internal carotid arteries (ECA) were exposed. A suture was introduced into a ligated right external carotid artery, in a retrograde fashion towards the carotid bifurcation. It was then directed distally up to the right internal carotid artery to a distance of 20 mm from the carotid bifurcation to […] occlude the origin of the MCA. It was secured with silk ligatures. Two hours after occlusion the monofilament was withdrawn to allow reperfusion and the cutaneous wound was sutured and cleaned. The whole procedure took about 25 min., with rectal temperature maintained throughout at 37° C. […]
Assay for Calpain activity: Each hemisphere was separately lysed by homogenization on ice in 5 ml RIPA buffer (50 mM Tris pH 7.5; 150 mM NaCl; 0.5% DOC; 1% Triton X-100; 0.1% SDS; 1 mM Nappi; 2 mM EDTA) plus protease inhibitors (Bohringer, Manheim, Germany). […] Quantitation of the bands was performed using the Kodak 1D software. […]

[5] = molecular target: T2, MMP-2 (Rattus norvegicus, UniProt P33436); experiment: MMP-2 activity in brain hemisphere lysates after unilateral MCAO (zymogram); assay type: in vivo; conditions: SD rats, 2 h MCAO, 5 μg/kg i.p. single dose, sacrificed after 24 hrs
T2 construct: each hemisphere of their brains was subjected separately to lysis and extracted for enzymatic activity; from tissue; host or cells: rat brain hemispheres (Sprague-Dawley, MCAO)
T2 sequence (P33436 110-662): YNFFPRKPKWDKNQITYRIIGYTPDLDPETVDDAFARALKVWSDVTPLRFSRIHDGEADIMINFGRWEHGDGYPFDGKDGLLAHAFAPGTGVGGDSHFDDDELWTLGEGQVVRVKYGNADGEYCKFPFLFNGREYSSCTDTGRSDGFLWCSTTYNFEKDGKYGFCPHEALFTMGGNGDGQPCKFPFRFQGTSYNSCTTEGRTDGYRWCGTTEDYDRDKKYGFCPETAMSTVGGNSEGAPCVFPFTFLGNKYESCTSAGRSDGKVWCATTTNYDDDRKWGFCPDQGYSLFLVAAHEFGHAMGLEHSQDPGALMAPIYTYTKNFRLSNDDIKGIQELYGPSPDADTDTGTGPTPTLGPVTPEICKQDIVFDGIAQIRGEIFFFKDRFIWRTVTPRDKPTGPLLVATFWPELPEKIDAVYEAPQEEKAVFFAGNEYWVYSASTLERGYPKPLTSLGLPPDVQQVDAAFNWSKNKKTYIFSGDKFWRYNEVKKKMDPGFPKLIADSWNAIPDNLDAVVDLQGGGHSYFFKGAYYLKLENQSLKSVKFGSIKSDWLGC

[6] = tested on: MMP-9; experiment: Total MMP-9 protein immunoassay (Quantikine) in conditioned media of TNFα-treated A-172 glioma cells; assay type: cell-based, human; conditions: A-172 cells, 10 ng/ml TNFα, 20 or 50 μM compound
Procedure: (§1) A-172 human glioma cells (ATCC; CRL-1620) were grown and treated with 10 ng/ml TNFα in the presence of 0, 20 or 50 μM DP-b109 following the procedure as described above in Example 3. Cells treated with vehicle without the TNFα treatment, served as control groups.
(§2) CM from each treatment group was collected and subjected to zymogram gels (see procedure in Example 3), to MMP-9 immunoassay and to MMP-9 activity assay.
The total amount of MMP-9 protein was determined by immunoassay using the Quantikine™ (R&D Systems, U.S.A., Cat # DMP900) kit and following the manufacturer's instructions.

[7] = molecular target: T3, MMP-9 (Homo sapiens, UniProt P14780); experiment: MMP-9 activity assay (BioTrak) in conditioned media of TNFα-treated A-172 glioma cells; assay type: cell-based; conditions: A-172 cells, 10 ng/ml TNFα, 20 or 50 μM compound
T3 construct: endogenous in cells; host or cells: A-172 human glioma cells (ATCC CRL-1620)
T3 sequence (P14780 107-707 limits assumed): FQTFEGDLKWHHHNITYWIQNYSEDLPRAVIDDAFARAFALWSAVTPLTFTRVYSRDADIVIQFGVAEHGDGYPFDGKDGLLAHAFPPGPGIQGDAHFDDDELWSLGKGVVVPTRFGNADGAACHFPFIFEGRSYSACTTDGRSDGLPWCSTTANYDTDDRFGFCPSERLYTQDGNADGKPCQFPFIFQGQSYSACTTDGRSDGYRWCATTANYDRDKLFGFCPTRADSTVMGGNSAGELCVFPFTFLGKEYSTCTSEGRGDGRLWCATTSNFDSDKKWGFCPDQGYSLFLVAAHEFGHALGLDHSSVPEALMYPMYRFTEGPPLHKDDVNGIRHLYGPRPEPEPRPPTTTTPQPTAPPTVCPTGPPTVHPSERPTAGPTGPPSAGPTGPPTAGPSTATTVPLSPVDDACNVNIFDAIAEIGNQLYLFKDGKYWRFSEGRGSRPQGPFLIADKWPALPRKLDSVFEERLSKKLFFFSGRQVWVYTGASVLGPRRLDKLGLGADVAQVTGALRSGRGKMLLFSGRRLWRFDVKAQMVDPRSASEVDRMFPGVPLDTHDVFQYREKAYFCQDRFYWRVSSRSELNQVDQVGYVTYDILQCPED
Procedure: as §1, §2
MMP-9 activity was assayed using the MMP-9 activity assay system (BioTrak™, Amersham, U.K., Cat. # RPN 2634), which quantifies the amount of the active MMP-9 form (see BioTrak kit instructions).

Structure (SMILES): CC(=O)OCOC(=O)CN(CC(=O)OCOC(C)=O)c1ccccc1OCCOc1ccccc1N(CC(=O)OCOC(C)=O)CC(=O)OCOC(C)=O [BAPTA-AM, 1,2-bis(2-aminophenoxy)ethane-N,N,N′,N′-tetra-acetic acid acetoxymethyl ester]
- Effect on MMP-9 activity [1]: increased rather than decreased the MMP-9 activity
- Effect on TNFα-induced MMP-9 activity ([1]; C6 glioma cells, 20 ng/ml TNFα, compounds at 1, 5, 10 and 20 μM, zymogram): Increased

Structure (SMILES): O=C(O)CN(CC(=O)O)c1ccccc1OCCOc1ccccc1N(CC(=O)O)CC(=O)O [BAPTA, 1,2-bis(2 aminophenoxy)ethane-N,N,N′,N′-tetraacetic acid]
- Effect on MMP-9 activity [1]: did not affect the MMP-9 activity

Structure (SMILES): CCCCCCCCOCCOC(=O)CN(CC(=O)O)c1ccccc1OCCOc1ccccc1N(CC(=O)O)CC(=O)OCCOCCCCCCCC [DP-b99, 1,2-bis(2-aminophenoxy)ethane, N,N′-di(2-octoxyethyl acetate), N,N′-diacetic acid]
- MMP-9 activity R/L ratio (injured/intact hemisphere) [2]: 3.0
- Active MMP-9 form, TNFα treated cells ([3]; 10 or 20 ng/ml TNFα): reduced
- Pro-MMP-9 form, TNFα treated cells ([3]; 10 or 20 ng/ml TNFα): reduced
- Active MMP-9 band, un-stimulated cells ([3]; no TNFα): abolished
- Pro-MMP-9 band intensity, un-stimulated cells ([3]; no TNFα): increased the band intensity
- Increase in cleaved spectrin over the sham-operated values [4]: about 50%
- Cleaved spectrin (R/L hemisphere) ([4]; sacrificed four hours later, n=2): 1.42 ± 0.08
- MMP-2 activity level [5]: unaffected

Structure (SMILES): CCCCCCCCCCCCCCCCCCOCCOC(=O)CN(CC(=O)O)c1ccccc1OCCOc1ccccc1N(CC(=O)O)CC(=O)OCCOCCCCCCCCCCCCCCCCCC [DP-b109, 1,2-bis(2-aminophenoxy)ethane, N,N′-di(2-octodecyloxyethyl acetate), N,N′-diacetic acid]
- Level of total MMP-9 protein in conditioned media [6]: reduces, in a dose-dependent fashion
- TNFα-induced increase in active MMP-9 [7]: reduced to the baseline level
